{"source": "patent US20120190691A1", "about": "“PHARMACEUTICAL COMPOSITIONS FOR TREATMENT OF RESPIRATORY AND INFLAMMATORY DISEASES” (priority 2010, published 2012)", "system": "ovalbumin-induced bronchospasm", "assay": "Ovalbumin-induced bronchospasm (modified Konzett-Rössler) in sensitized anaesthetized guinea pigs", "assay_type": "in vivo", "method": "Male and female Dunkin-Harley guinea pigs were obtained from the Experimental Animal Breeding Centre of Harlan Winkelmann (Germany). After fasting overnight, but with free access to drinking water, animals with body weight of 400-500 g were used.\nBronchospasm was recorded with a modified version of the method of Konzett-Röβler (described by Walland et al, in “Compensation of muscarinic bronchial effects of talsaclidine by concomitant sympathetic activation in guinea pigs”, European Journal of Pharmacology, Volume 330, Issue 2-3, 9 Jul. 1997, Pages 213-219). The animals were ventilated by means of a piston pump (starling ventilator, Hugo Sachs Elektronik, Germany) at a stroke volume of 1 ml/100 g body weight and at a rate of 60 strokes per min. The tubing which connected the tracheal cannula with the ventilator was provided with a branch leading to the bronchospasm transducer (bronchospasm transducer 7020, Ugo Basile, Italy). The air flow measurement is based on the hot wire anemometer principle. Any air flow will reduce the temperature of the wire, thereby decreasing its resistance in proportion of the flow. As the wire element is one arm of a Weaststone bridge, variation in resistance generate a proportional voltage output which feeds the amplifier/recording system (Notocord-hem, Notocord, France). Blood pressure and heart rate are monitored from a carotid artery in order to check the anesthesia and the variability of the preparation.\nGuinea pigs were sensitized on 2 consecutive days with 20 μg ovalbumin (OVA) (Sigma, St. Louis, Mo.) and 20 mg Al(OH)3 in 0.5 ml saline, which were administered subcutaneously. Experiments, which included OVA challenge, were conducted 2 weeks after sensitization. Approximately 1 hour before OVA challenge, the animals were anaesthetized with an intraperitoneal injection of 50 mg/kg pentobarbital. Anesthesia was prolonged by intravenous infusion of pentobarbital (15 mg/kg/h) via the jugular vein. A tracheal cannula was introduced after tracheotomy for artificial ventilation. The internal jugular vein was cannulated for drug injection while the left carotid artery was cannulated for measuring blood pressure and heart rate. 30 minutes after the beginning of air flow and blood pressure measurements, bronchoconstriction is triggered by an OVA challenge given at a fixed dose of 50 μg/kg inhaled.\nThe test compounds or combinations of compounds were administered orally 2 hours before the OVA challenge.\nThe control group comprises 12 guinea-pigs, test compounds comprise 2 to 4 guinea-pigs.\nBronchoprotection of the drug (i.e. inhibition of OVA broncho-constriction) is expressed as a percentage of inhibition of the increase in overflow induced by OVA in the control animals.", "key": {"[1]": {"details": "Desloratidine 2.0 mg/kg p.o. alone (CRTH2 antagonist (1) 0.0)"}, "[2]": {"details": "Fexofenadine 0.5 mg/kg p.o. alone (CRTH2 antagonist (1) 0.0)"}, "[3]": {"details": "Pyrilamine 2.0 mg/kg p.o. alone (CRTH2 antagonist (1) 0.0)"}}}
{"compound": "CN(C)c1nc(Cc2ccc(NC(=O)c3ccc(C(F)(F)F)cc3)cc2)nc(N(C)C)c1CC(=O)O", "note": "[CRTH2 antagonist (1), [4,6-bis(dimethylamino)-2-(4-(4-(trifluoromethyl)benzamido)benzyl)pyrimidin-5-yl]-acetic acid]", "values": [{"measurement": "overflow", "setting": "CRTH2 antagonist (1) 0.01 mg/kg p.o. alone, 2 hours before OVA challenge", "value": 63, "unit": "mL"}, {"measurement": "overflow", "setting": "CRTH2 antagonist (1) 0.03 mg/kg p.o. alone, 2 hours before OVA challenge", "value": 65, "unit": "mL"}, {"measurement": "overflow", "setting": "CRTH2 antagonist (1) 0.10 mg/kg p.o. alone, 2 hours before OVA challenge", "value": 69, "unit": "mL"}, {"measurement": "overflow", "setting": "CRTH2 antagonist (1) 0.30 mg/kg p.o. alone, 2 hours before OVA challenge", "value": 60, "unit": "mL"}, {"measurement": "overflow", "setting": "CRTH2 antagonist (1) 1.00 mg/kg p.o. alone, 2 hours before OVA challenge", "value": 65, "unit": "mL"}, {"measurement": "overflow", "setting": "CRTH2 antagonist (1) 3.00 mg/kg p.o. alone, 2 hours before OVA challenge", "value": 61, "unit": "mL"}, {"measurement": "overflow", "setting": "CRTH2 antagonist (1) 10.00 mg/kg p.o. alone, 2 hours before OVA challenge", "value": 65, "unit": "mL"}, {"measurement": "effect in this assay by itself", "setting": "alone, conclusion", "value": "no effect"}, {"measurement": "effect by itself on the ovalbumin-induced bronchospasm", "setting": "up to 10 mg/kg p.o., alone", "value": "no effect"}]}
{"compound": "Clc1ccc2c(c1)CCc1cccnc1C2=C1CCNCC1", "note": "[Desloratidine, reference compound]", "values": [{"measurement": "bronchoprotection", "setting": "[1]", "value": 43, "unit": "%"}, {"measurement": "overflow", "setting": "[1]", "value": 34, "unit": "mL"}]}
{"compound": "CC(C)(C(=O)O)c1ccc(C(O)CCCN2CCC(C(O)(c3ccccc3)c3ccccc3)CC2)cc1", "note": "(stereo not drawn) [Fexofenadine, reference compound]", "values": [{"measurement": "bronchoprotection", "setting": "[2]", "value": 35, "unit": "%"}, {"measurement": "overflow", "setting": "[2]", "value": 39, "unit": "mL"}]}
{"compound": "COc1ccc(CN(CCN(C)C)c2ccccn2)cc1", "note": "[Pyrilamine, reference compound]", "values": [{"measurement": "bronchoprotection", "setting": "[3]", "value": 45, "unit": "%"}, {"measurement": "overflow", "setting": "[3]", "value": 33, "unit": "mL"}]}
